Experiments:
Format in all cases: in vivo
Akt = Akt inhibitor treatment of B16-bearing mice, PGC1α levels and mitochondrial mass of CD8^+ T cells; details: short-term treatment (72 h)
Experimental: FIGS. 11A-11H. Intratumoral T cell mitochondrial biogenesis is repressed by chronic Akt-mediated repression of PGC1α (A) Flow cytogram (left) and tabulated data (right) of PGC1α intracellular staining in CD8^+ T cells isolated from nondraining or draining LNs or TIL preparations from B16 or MC38 bearing mice. Shaded histogram indicates isotype control. (B) Flow cytogram of PGC1α expression in CTV-labeled, naïve OT-I T cells adoptively transferred into B16^OVA bearing mice for 72 h. Tabulation for multiple experiments is to the right. (C) Flow cytogram of cytokine production of congenically mismitached WT OT-I T cells transferred into B16^OVA-bearing or VV^OVA-infected mice for 96 h, then restimulated with SIINFEKL peptide. (D) Representative and tabulated phospho-Akt (S473) and phospho-Foxo1 (T24)/3a(T32) staining of the indicated cell populations in mice bearing 14-day B16 tumors. MFI is reported. (E) Representative flow cytogram and tabulated data indicating PGC1α staining in pAkt low or high cells. (F) MFI of pAkt staining in naïve OT-I T cells, or OT-I T cells transferred for 3 or 6 days into a B16^OVA-bearing or VV^OVA infected mouse. […] Results are representative of 5 (A,B, D) 3 (C, E, G, H) or 2 (F) independent experiments. *, p<0.05, **p<0.01, ***p<0.001 by unpaired t-test (A, F, G, H) or paired t-test (D, E, G, H). ***p<0.001 by two-way ANOVA. Error bars indicate s.e.m. […]

[1] = tested on: tumor infiltrating T cells; assay: m-divi-1 treatment of tumor-bearing mice after OT-I adoptive transfer, mitochondrial staining; details: tumor-bearing mice treated 24 h after adoptive transfer
Experimental: FIGS. 5A-5E. T cell mitochondrial dysfunction is induced upon entry into the tumor microenvironment. (A) Representative flow cytogram and tabulated data of LN and TIL of naïve, CTV-labeled, OT-I (Thy 1.1^+) CD8^+ T cells transferred into B16^OVA-bearing mice (5-7 mm tumors), or the spleens of the same progenitor cells transferred into B6 mice infected with 1×10^6 PFU VV^OVA for 72 h. Cells were stained with MitoTracker Deep Red FM. (B) As in A, but with the mitochondrial membrane potential dye TMRE. (C) As in A, but with the cellular ROS indicator DCFDA. (D) As in A, but cells were permeabilized and stained intracellularly for LC3B. (E) Representative data from experiments as in A, but some mice received mitophagy inhibitor m-divi-1. Results represent the mean of three or four independent experiments, with n=7-9 mice per group. **p<0.01, ***p<0.001, ***p<0.0001 by two-way ANOVA. Error bars indicate s.e.m.
Single-cell metabolic capacity was assayed by flow cytometry. Specifically, 2-NBD-glucose (Cayman Chemical) and MitoTracker FM dyes (ThermoFisher) were utilized to assay the propensity of cells to take up glucose or generate intermediates via their mitochondria. […]
As mitochondrial depolarization can lead to autophagy, it was determined whether mitophagy may be mediating the loss of mitochondria in tumor-infiltrating T cells.

[2] = tested on: tumor-infiltrating Treg cells; assay: Treg depletion with diphtheria toxin in B16-bearing Foxp3^DTR.GFP mice; details: 3 days diphtheria toxin

O=c1[nH]c2ccccc2n1C1CCN(Cc2ccc(-c3nc4cc5[nH]cnc5cc4nc3-c3ccccc3)cc2)CC1 [Akt inhibitor, Akt inhibitor VIII]
PGC1α and mitochondrial sufficiency (metabolically suppressive phenotype) (Akt): partial rescue of the metabolically suppressive phenotype

COc1cc(-n2c(=S)[nH]c3ccccc3c2=O)c(Cl)cc1Cl [m-divi-1]
mitochondrial staining in tumor infiltrating T cells [1]: failed to improve mitochondrial staining

diphtheria toxin
CD8^+ T cell MitoTracker FM staining [2]: no significant increases in CD8^+ T cell MitoTracker FM staining
depletion of tumor-infiltrating Treg cells [2]: near complete depletion of tumor-infiltrating Treg cells

Source: patent US11583555B2, “Genetic re-engineering of immune cells to improve metabolic fitness for immunotherapy” (University of Pittsburgh—Of the Commonwealth System of …, priority 2016, dated 2023)
